# Assays:
# [1] = test system: HDAC proteins in HeLa cell lysates; assay: Global HDAC inhibition with HeLa cell lysates (HDAC-Glo I/II substrate); assay type: biochemical; details: for Deacetylase activity (%): Hela Lysate
# Protocol: HDAC activity was measured using the commercially available HDAC-Glo™ I/II substrate (Promega).
# Lysates were prepared according to the reported procedure.^28 HeLa-S3 cells (purchased from Biovest) were lysed in lysis buffer (1×10^9 cells in 10 mL lysis buffer; 50 mM Tris-HCl, pH 8.0, 10% glycerol, 150 mM NaCl, 0.5% Triton X-100, and 1× protease inhibitor cocktail (GenDEPOT)) with rotation at 4° C. for 30 min. Cell debris was removed by centrifugation at 12000 rpm at 4° C. for 30 min. Protein concentration of the supernatant was determined using Bio-Rad protein assay (BioRad, Bradford reagent). Lysates were stored at −80° C.
# To measure global HDAC inhibition, HeLa cell lysates (1 μg total protein) were mixed with HDAC-Glo™ buffer in polystyrene 96-well half area white plate (Corning) to a final volume of 12 μL, followed by addition of inhibitors in DMSO (0.5 μL) and incubation for 15 min at room temperature without rocking. An uninhibited control reaction was also included that contained DMSO (0.5 μL). Finally, deacetylase activity was measured using the HDAC-Glo™ assay kit (Promega) as per the manufacturer's protocol. Specifically, the HDAC-Glo™ substrate (1 mL) and developer ([…]) were first premixed to form the HDAC-Glo™ reagents. Then, to monitor deacetylase activity, HDAC-Glo™ reagent (5 μL) and HDAC-Glo™ buffer (7.5 μL) were added to each well (25 μL total volume) and incubated for 35 min at room temperature without rocking. The deacetylase activity was measured as luminescent signal using a GeniosPlus Fluorimeter (Tecan) at optimal gain. The concentrations of inhibitors reported in the dose-dependent studies (Table 2) are final concentrations after addition of HDAC-Glo™ reagent HDAC-Glo™ buffer.
# [2] = target: T1, recombinant HDAC8 (Homo sapiens, UniProt Q9BY41); assay: Recombinant HDAC8 inhibition (HDAC-Glo); assay type: biochemical; details: for activity at 0.1 µM: 1.0 × 10^−7 M; for activity at 0.2 µM: 2.0 × 10^−7 M; for activity at 0.05 µM: 5.0 × 10^−8 M; for HDAC8 fold selectivity HDAC1: HDAC8 over HDAC1; for HDAC8 fold selectivity HDAC1 / HDAC8 fold selectivity HDAC2 / HDAC8 fold selectivity HDAC3: calculated from IC50 values; for HDAC8 fold selectivity HDAC2: HDAC8 over HDAC2; for HDAC8 fold selectivity HDAC3: HDAC8 over HDAC3
# T1 construct: purchased BPS Bioscience
# T1 sequence (Q9BY41 1-377): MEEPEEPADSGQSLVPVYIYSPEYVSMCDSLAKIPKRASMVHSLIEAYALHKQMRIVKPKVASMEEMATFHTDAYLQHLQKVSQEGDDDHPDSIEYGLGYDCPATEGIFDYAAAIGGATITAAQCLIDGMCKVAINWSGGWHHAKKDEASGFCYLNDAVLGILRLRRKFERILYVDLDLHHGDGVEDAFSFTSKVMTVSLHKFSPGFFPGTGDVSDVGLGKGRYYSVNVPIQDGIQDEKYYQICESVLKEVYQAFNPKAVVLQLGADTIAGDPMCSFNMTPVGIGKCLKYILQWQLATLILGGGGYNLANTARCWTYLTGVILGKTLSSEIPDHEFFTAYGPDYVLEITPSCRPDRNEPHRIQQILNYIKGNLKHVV
# Protocol: Inhibitory activity with HDAC8 was measured using the following procedure. In a half area 96-well white opaque plate, recombinant HDAC8 (75 ng, BPS Bioscience) was incubated in HDAC-Glo™ buffer (39 μL) with inhibitor in DMSO (1 μL), or DMSO alone (1 μL) as a control, for 15 minutes at room temperature. HDAC-Glo™ reagent (10 μL) was added to each reaction and incubated for 30 min at room temperature. Luminescent signal was measured 30 minutes after adding the substrate reagent using a Geniosplus Fluorimeter (Tecan) at optimal gain. To determine IC50, the luminescent signal was first background corrected with the signal from a background control reaction where no HDAC8 enzyme was added.
# [3] = target: HDAC3 (Homo sapiens, UniProt O15379); assay: ELISA-based HDAC activity assay, HDAC3; details: for IC50: read-out: IC50 values (nM) HDAC3
# [4] = target: T2, HDAC6 (Homo sapiens, UniProt Q9UBN7); assay: ELISA-based HDAC activity assay, HDAC6; details: for HDAC6 fold selectivity HDAC1: HDAC6 over HDAC1; for HDAC6 fold selectivity HDAC1 / HDAC6 fold selectivity HDAC2 / HDAC6 fold selectivity HDAC3: calculated from IC50 values; for HDAC6 fold selectivity HDAC2: HDAC6 over HDAC2; for HDAC6 fold selectivity HDAC3: HDAC6 over HDAC3; for IC50: read-out: IC50 values (nM) HDAC6
# T2 sequence (Q9UBN7 1-1215): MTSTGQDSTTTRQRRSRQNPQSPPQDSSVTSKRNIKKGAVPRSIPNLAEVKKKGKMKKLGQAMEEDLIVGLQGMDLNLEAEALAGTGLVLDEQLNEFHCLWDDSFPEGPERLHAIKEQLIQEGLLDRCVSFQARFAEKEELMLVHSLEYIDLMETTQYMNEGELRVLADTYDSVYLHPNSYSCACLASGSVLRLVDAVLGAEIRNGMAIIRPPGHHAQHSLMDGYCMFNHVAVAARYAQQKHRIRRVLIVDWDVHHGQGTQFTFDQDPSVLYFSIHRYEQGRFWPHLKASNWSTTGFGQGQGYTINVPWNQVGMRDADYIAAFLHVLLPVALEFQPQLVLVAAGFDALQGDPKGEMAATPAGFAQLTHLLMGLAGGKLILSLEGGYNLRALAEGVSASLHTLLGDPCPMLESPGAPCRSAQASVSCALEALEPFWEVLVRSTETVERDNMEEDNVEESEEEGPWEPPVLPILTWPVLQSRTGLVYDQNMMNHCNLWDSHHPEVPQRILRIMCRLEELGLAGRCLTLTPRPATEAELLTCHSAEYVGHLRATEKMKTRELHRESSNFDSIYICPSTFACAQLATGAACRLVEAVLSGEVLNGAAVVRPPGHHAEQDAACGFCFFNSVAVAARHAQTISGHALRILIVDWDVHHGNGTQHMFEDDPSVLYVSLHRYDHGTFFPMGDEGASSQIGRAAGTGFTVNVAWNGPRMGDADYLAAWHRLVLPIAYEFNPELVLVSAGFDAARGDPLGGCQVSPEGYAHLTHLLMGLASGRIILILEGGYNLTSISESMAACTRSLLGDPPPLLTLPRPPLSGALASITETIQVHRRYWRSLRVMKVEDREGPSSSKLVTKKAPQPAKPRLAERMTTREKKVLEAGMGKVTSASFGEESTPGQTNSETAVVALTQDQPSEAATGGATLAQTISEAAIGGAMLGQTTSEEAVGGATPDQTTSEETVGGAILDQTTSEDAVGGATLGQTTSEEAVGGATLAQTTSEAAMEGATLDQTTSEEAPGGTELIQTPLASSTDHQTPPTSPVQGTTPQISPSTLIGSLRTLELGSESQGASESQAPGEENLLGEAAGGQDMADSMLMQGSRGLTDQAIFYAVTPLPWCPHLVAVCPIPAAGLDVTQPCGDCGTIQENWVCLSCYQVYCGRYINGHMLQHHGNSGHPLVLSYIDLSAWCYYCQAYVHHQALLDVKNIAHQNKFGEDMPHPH
# [5] = target: HDAC2 (Homo sapiens, UniProt Q92769); assay: ELISA-based HDAC activity assay, HDAC2; details: for IC50: read-out: IC50 values (nM) HDAC2
# [6] = target: HDAC1 (Homo sapiens, UniProt Q13547); assay: ELISA-based HDAC activity assay, HDAC1; details: for IC50: read-out: IC50 values (nM) HDAC1
# [7] = read-out: Deacetylase activity (%) HDAC8
# [8] = read-out: Deacetylase activity (%) HDAC3
# [9] = read-out: Deacetylase activity (%) HDAC6
# [10] = read-out: Deacetylase activity (%) HDAC2
# [11] = read-out: Deacetylase activity (%) HDAC1
# Chain of HDAC3 (O15379 whole entry): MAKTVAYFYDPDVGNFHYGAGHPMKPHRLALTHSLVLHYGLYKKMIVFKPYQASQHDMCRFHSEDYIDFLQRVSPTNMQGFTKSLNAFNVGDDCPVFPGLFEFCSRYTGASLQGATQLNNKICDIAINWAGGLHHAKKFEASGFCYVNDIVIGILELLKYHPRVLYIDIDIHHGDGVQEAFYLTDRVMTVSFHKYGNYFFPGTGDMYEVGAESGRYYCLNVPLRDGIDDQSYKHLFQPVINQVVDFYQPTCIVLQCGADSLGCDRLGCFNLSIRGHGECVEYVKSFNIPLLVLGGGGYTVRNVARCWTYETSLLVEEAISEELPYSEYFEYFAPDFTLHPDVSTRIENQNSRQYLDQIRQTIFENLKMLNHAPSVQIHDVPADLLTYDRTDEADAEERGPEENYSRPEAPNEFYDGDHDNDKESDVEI
# Chain of HDAC3 (Q9Y618 whole entry partner): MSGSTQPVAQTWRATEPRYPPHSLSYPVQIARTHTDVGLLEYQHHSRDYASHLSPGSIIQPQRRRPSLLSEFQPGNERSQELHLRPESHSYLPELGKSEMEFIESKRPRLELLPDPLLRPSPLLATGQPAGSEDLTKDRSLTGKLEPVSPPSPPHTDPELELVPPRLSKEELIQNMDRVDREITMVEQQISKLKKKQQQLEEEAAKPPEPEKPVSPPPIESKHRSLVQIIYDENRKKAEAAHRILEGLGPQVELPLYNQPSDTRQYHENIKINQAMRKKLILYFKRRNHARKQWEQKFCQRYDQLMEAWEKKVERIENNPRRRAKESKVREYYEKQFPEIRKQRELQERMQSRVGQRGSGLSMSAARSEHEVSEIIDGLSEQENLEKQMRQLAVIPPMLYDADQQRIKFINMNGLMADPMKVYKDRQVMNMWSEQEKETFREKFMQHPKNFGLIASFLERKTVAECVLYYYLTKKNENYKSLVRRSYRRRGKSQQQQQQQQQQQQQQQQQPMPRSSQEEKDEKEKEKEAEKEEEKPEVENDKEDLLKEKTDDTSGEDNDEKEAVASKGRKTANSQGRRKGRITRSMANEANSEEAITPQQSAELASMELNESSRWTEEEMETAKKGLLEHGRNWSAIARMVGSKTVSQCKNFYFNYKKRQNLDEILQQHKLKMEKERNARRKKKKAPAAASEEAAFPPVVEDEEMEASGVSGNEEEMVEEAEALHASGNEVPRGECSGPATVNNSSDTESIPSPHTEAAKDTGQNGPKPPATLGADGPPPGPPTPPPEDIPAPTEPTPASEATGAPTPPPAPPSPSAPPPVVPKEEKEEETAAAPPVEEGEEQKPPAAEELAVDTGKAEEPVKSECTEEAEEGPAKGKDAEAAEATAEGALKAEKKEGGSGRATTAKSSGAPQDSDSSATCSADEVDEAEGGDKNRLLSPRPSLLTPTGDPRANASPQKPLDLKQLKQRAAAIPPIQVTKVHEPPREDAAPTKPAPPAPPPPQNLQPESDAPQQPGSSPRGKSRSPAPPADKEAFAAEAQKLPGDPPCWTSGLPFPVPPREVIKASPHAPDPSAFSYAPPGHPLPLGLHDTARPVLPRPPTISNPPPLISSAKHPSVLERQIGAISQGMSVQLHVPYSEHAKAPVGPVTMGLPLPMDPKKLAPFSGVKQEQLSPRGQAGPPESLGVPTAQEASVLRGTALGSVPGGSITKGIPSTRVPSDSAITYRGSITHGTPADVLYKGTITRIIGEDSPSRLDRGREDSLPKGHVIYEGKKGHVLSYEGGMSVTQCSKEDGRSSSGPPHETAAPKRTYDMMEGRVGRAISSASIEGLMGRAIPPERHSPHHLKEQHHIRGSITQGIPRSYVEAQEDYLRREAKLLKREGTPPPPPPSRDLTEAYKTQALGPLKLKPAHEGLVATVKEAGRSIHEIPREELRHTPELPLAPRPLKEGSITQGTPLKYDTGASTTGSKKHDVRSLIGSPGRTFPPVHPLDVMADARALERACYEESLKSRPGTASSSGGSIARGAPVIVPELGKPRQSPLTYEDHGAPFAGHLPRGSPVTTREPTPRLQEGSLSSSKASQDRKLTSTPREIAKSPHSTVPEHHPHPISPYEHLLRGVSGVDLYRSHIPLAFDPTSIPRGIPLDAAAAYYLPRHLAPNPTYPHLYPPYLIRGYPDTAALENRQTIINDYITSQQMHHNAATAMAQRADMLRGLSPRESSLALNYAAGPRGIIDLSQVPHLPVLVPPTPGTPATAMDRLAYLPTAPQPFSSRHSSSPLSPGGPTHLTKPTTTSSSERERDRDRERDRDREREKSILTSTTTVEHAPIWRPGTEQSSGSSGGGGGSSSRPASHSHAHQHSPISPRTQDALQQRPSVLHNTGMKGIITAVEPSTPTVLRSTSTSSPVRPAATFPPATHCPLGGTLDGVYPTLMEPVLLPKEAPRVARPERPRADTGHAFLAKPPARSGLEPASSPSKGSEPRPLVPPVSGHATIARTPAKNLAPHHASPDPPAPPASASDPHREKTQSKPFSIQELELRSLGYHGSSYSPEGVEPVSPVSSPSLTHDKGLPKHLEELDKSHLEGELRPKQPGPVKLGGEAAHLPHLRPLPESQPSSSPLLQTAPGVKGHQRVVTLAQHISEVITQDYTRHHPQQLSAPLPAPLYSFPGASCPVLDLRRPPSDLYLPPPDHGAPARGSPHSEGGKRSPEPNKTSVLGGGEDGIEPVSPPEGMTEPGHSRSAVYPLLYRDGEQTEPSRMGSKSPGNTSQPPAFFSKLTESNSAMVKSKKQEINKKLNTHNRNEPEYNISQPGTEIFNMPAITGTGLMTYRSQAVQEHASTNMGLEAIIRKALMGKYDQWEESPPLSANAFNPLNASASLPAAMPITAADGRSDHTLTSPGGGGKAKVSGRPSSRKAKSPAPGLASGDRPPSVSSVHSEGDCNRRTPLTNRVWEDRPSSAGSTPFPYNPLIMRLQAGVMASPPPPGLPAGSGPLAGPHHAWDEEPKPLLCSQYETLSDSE
# Chain of HDAC1 (Q13547 whole entry): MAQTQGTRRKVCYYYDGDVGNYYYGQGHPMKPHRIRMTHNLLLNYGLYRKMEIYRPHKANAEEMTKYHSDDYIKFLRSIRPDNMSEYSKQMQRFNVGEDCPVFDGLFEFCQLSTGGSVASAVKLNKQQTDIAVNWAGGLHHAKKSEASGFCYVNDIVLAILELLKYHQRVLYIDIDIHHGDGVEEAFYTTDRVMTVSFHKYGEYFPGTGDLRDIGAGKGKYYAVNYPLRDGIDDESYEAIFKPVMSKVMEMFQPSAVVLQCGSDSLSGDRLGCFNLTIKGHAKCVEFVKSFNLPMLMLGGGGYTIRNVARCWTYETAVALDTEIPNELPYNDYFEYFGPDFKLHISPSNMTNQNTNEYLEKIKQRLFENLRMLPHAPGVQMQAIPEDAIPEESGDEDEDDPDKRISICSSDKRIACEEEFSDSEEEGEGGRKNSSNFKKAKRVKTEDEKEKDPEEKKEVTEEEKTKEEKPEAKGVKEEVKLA
# Chain of HDAC2 (Q92769 whole entry): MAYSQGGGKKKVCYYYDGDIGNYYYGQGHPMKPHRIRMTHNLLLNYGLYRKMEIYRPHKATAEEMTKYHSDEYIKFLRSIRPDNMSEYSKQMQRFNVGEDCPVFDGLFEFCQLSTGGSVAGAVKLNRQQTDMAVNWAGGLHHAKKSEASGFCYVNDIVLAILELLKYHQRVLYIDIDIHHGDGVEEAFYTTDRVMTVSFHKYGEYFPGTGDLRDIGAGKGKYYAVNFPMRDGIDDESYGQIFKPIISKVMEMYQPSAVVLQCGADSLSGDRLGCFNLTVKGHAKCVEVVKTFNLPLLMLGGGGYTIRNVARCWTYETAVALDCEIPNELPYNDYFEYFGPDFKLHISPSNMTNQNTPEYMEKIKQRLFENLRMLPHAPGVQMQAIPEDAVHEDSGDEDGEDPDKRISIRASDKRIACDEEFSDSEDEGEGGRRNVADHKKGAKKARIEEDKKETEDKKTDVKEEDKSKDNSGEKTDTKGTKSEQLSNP
smiles,measurement,setting,value
"CC(CCCC(=O)Nc1ccccc1)CCC(=O)NO (racemic) [Compound 1a, N^1-hydroxy-4-methyl-N^8-phenyloctanediamide]",Deacetylase activity (%),[1]; 1.0 × 10^−5 M,17 ± 2%
same,Deacetylase activity (%),[1]; 1.25 × 10^−6 M,79 ± 3%
same,Deacetylase activity (%),[1]; 5.0 × 10^−6 M,38 ± 4%
same,Deacetylase activity (%),[1]; 6.25 × 10^−6 M,91 ± 2%
same,IC50,[1]; HeLa cell lysates,3.3 µM
same,fold less potent than SAHA,"[1]; HeLa cell lysates, compared to parent SAHA",18 fold
same,Deacetylase activity (%),[1]; […] 10^−6 M,60 ± 3%
"CCCCCCC(CCCC(=O)Nc1ccccc1)CCC(=O)NO (single isomer, unassigned) [Compound 1e, 4-hexyl-N^1-hydroxy-N^8-phenyloctanediamide]",Deacetylase activity (%),[1]; 1.0 × 10^−4 M,32 ± 1%
same,Deacetylase activity (%),[1]; 1.25 × 10^−5 M,104 ± 1%
same,Deacetylase activity (%),[1]; 2.0 × 10^−4 M,15 ± 1%
same,Deacetylase activity (%),[1]; 5.0 × 10^−5 M,57 ± 2%
same,IC50,[1]; HeLa cell lysates,65 ± 6 µM
same,Deacetylase activity (%),[1]; […] 10^−5 M,88 ± 1%
"O=C(CC[C@@H](CCCC(=O)Nc1ccccc1)Cc1ccccc1)NO [(R)-1f, (R)-4-benzyl-N^1-hydroxy-N^8-phenyloctanediamide]",IC50,[2],27 nM
same,activity at 0.1 µM,[2]; [7],22 ± 1%
same,activity at 0.0125 µM,"[2]; 1.25 × 10^−8 M, read-out: Deacetylase activity (%) HDAC8",64 ± 2%
same,activity at 0.2 µM,[2]; [7],16 ± 1%
same,activity at […],"[2]; 2.5 × 10^−8 M, read-out: Deacetylase activity (%) HDAC8",56 ± 4%
same,activity at 0.05 µM,[2]; [7],37 ± 3%
same,HDAC8 fold selectivity HDAC1,[2],260 fold
same,HDAC8 fold selectivity HDAC2,[2],330 fold
same,HDAC8 fold selectivity HDAC3,[2],240 fold
same,activity at 5 µM,[3]; [8],89 ± 2%
same,activity at 10 µM,[3]; [8],77 ± 2%
same,activity at 20 µM,[3]; [8],54 ± 4%
same,activity at 40 µM,[3]; [8],39 ± 2%
same,activity at 80 µM,[3]; [8],25 ± 2%
same,IC50,[3],27000 nM
same,HDAC6 fold selectivity HDAC1,[4],420 fold
same,HDAC6 fold selectivity HDAC2,[4],540 fold
same,HDAC6 fold selectivity HDAC3,[4],390 fold
same,activity at 0.0125 µM,[4]; [9],67 ± 4%
same,activity at 0.05 µM,[4]; [9],57 ± 5%
same,activity at 0.1 µM,[4]; [9],37 ± 6%
same,activity at 0.2 µM,[4]; [9],26 ± 4%
same,activity at […],[4]; [9],59 ± 8%
same,IC50,[4],48 nM
same,activity at 5 µM,[5]; [10],96 ± 1%
same,activity at 10 µM,[5]; [10],83 ± 5%
same,activity at 20 µM,[5]; [10],71 ± 4%
same,activity at 40 µM,[5]; [10],43 ± 5%
same,activity at 80 µM,[5]; [10],29 ± 1%
same,IC50,[5],36000 nM
same,activity at 5 µM,[6]; [11],88 ± 4%
same,activity at 10 µM,[6]; [11],72 ± 3%
same,activity at 20 µM,[6]; [11],53 ± 6%
same,activity at 40 µM,[6]; [11],38 ± 3%
same,activity at 80 µM,[6]; [11],24 ± 2%
same,IC50,[6],25000 nM
"O=C(CC[C@H](CCCC(=O)Nc1ccccc1)Cc1ccccc1)NO [(S)-1f, (S)-4-benzyl-N^1-hydroxy-N^8-phenyloctanediamide]",IC50,[2],150 nM
same,activity at 0.1 µM,[2]; [7],61 ± 3%
same,activity at 0.2 µM,[2]; [7],42 ± 2%
same,activity at 0.4 µM,"[2]; 4.0 × 10^−7 M, read-out: Deacetylase activity (%) HDAC8",28 ± 1%
same,activity at 0.05 µM,[2]; [7],75 ± 6%
same,activity at 0.8 µM,"[2]; 8.0 × 10^−7 M, read-out: Deacetylase activity (%) HDAC8",19 ± 1%
same,HDAC8 fold selectivity HDAC1,[2],930 fold
same,HDAC8 fold selectivity HDAC2,[2],1300 fold
same,HDAC8 fold selectivity HDAC3,[2],1000 fold
same,activity at 10 µM,[3]; [8],76 ± 5%
same,activity at 20 µM,[3]; [8],67 ± 4%
same,activity at 40 µM,[3]; [8],48 ± 2%
same,activity at 80 µM,[3]; [8],33 ± 4%
same,activity at 160 µM,[3]; [8],15 ± 2%
same,IC50,[3],37000 nM
same,HDAC6 fold selectivity HDAC1,[4],520 fold
same,HDAC6 fold selectivity HDAC2,[4],750 fold
same,HDAC6 fold selectivity HDAC3,[4],560 fold
same,activity at 0.05 µM,[4]; [9],64 ± 4%
same,activity at 0.1 µM,[4]; [9],48 ± 7%
same,activity at 0.2 µM,[4]; [9],37 ± 7%
same,activity at 0.4 µM,[4]; [9],17 ± 6%
same,activity at 0.8 µM,[4]; [9],16 ± 6%
same,IC50,[4],95 ± 9 nM
same,activity at 10 µM,[5]; [10],87 ± 5%
same,activity at 20 µM,[5]; [10],74 ± 3%
same,activity at 40 µM,[5]; [10],56 ± 3%
same,activity at 80 µM,[5]; [10],37 ± 6%
same,activity at 160 µM,[5]; [10],22 ± 2%
same,IC50,[5],51000 nM
same,activity at 10 µM,[6]; [11],84 ± 7%
same,activity at 20 µM,[6]; [11],68 ± 3%
same,activity at 40 µM,[6]; [11],50 ± 3%
same,activity at 80 µM,[6]; [11],32 ± 2%
same,activity at 160 µM,[6]; [11],17 ± 1%
same,IC50,[6],40000 nM

# Reference: patent US10259779B2 (WAYNE STATE UNIVERSITY, priority 2016, dated 2019)
